# Earlier results, collected in article PMC6724535 (Journal of molecular biology, 2019).
# Legend:
# [1] = system: E. coli expressing TetX; details: E. coli expressing TetX vs wild-type E. coli
# [2] = system: E. coli expressing TetK, TetA, TetB, and TetM
# [3] = system: E. coli expressing AACs, ANTs, APHs and 16S rRNA ribosomal methyltransferases
# [4] = system: D. discoideum
molecule,measurement,setting,value
CN(C)[C@@H]1C(O)=C(C(N)=O)C(=O)[C@@]2(O)C(O)=C3C(=O)c4c(O)c(NC(=O)CN5CCCC5)cc(F)c4C[C@H]3C[C@@H]12 [eravacycline],increase in minimal inhibitory concentration (MIC) relative to wild-type E. coli,[1],64 fold
same,antibacterial activity,[2],maintained nearly full antibacterial activity
CN[C@@H]1[C@@H](O)[C@@H](O[C@@H]2[C@@H](O)[C@H](O[C@H]3OC(CNCCO)=CC[C@H]3N)[C@@H](N)C[C@H]2NC(=O)[C@@H](O)CCN)OC[C@]1(C)O [plazomicin],activity against E. coli expressing aminoglycoside inactivating enzymes,"[3]; majority of canonical AACs, ANTs, and APHs",maintain activity
same,antibacterial activity with ribosomal methyltransferases,[3]; some plasmid-encoded 16S rRNA ribosomal methyltransferases,completely abolish
jessenipeptin,amoebicidal activity IC50,[4],4 µg/mL
